Where “and” joins values, the source holds several entries; their conditions need not be identical. Identical values can stand only once.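 Tested at 5 concentrations; 48 h exposure; 96-well plates; endpoints linearly interpolated, else capped at highest concentration. At the GI50, growth is halved. TGI denotes the concentration required for complete inhibition of growth.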
Key:
Assay in all cases: inhibition of tumour cell growth, NCI panel, 48 h
NCI/ADR-RES ovarian = test system: NCI/ADR-RES ovarian
NCI-H460 lung = test system: NCI-H460 lung
786-0 renal = test system: 786-0 renal
PC-3 prostate = test system: PC-3 prostate
MDA-MB-231 breast = test system: MDA-MB-231 breast
SW-620 colon = test system: SW-620 colon
TK-10 renal = test system: TK-10 renal
UACC-257 melanoma = test system: UACC-257 melanoma
RXF 393 renal = test system: RXF 393 renal
ACHN renal = test system: ACHN renal

SMILES | GI50 (NCI/ADR-RES ovarian) [µM] | TGI (NCI/ADR-RES ovarian) | GI50 (NCI-H460 lung) | TGI (NCI-H460 lung) [µM] | GI50 (786-0 renal) [µM] | TGI (786-0 renal) | GI50 (PC-3 prostate) [µM] | TGI (PC-3 prostate) | GI50 (MDA-MB-231 breast) [µM] | TGI (MDA-MB-231 breast) | GI50 (SW-620 colon) [µM] | TGI (SW-620 colon) | GI50 (TK-10 renal) | TGI (TK-10 renal) | GI50 (UACC-257 melanoma) [µM] | TGI (UACC-257 melanoma) | GI50 (RXF 393 renal) | TGI (RXF 393 renal) | GI50 (ACHN renal) [µM] | TGI (ACHN renal)
CC1(C)[C@@H](OC(=O)CCC(=O)O)CC[C@]2(C)[C@H]3C(=O)C=C4[C@@H]5C[C@@](C)(C(=O)O)CC[C@]5(C)CC[C@@]4(C)[C@]3(C)CC[C@@H]12 | 81.2 | 146 µM | 52.6 µM | 76 | 58.8 | 104 µM | 56 | 127 µM | 78.8 | 171 µM | 59.2 | 126 µM | 65.6 µM | 124 µM | 66.2 | 91.4 µM | 50.5 µM | 66 µM | 63 | 114 µM
CN1C/C=C/CCOc2cccc(c2)-c2ccnc(n2)Nc2cccc(c2)C1 | 0.0561 | 0.963 µM | 0.0347 µM | 0.352 | 0.0317 | 0.203 µM | 0.0519 | 1.39 µM | 0.0731 | 1.08 µM | 0.0396 | 0.969 µM | 0.048 µM | 0.506 µM | 0.0505 | 0.225 µM | 0.0207 µM | 0.0447 µM | 0.0307 | 1.45 µM
CC(=O)N1N=C2/C(=C/c3ccc(Cl)cc3)CC(C)CC2C1c1ccc(Cl)cc1 (centres undefined) | 21.7 | > 100 µM | 18.5 µM | 41.8 | 18.2 | 39.1 µM | 12.8 | > 100 µM | 18.1 | 52.6 µM | 19.3 | 57.7 µM | 37.2 µM | > 100 µM | 19.9 | 56.1 µM | 15.3 µM | 33.9 µM | 33.2 | > 100 µM
Cc1cc(C(C)(C)C)cc(CNC2CCCCC2)c1O | – | 31.2 µM | – | 28.4 | – | 30 µM | – | 31 µM | – | 32.9 µM | – | 40.4 µM | – | 29.7 µM | – | 28.4 µM | – | 12.6 µM | – | 31 µM
CN(C)c1ccc(/C=C/C2=[N+](C)c3ccccc3C2(C)C)cc1 | 13.7 | > 100 µM | 0.746 µM | 10.7 | 2.06 | 18.9 µM | 0.235 | 13.8 µM | 1.51 | 20.9 µM | 0.379 | 17.8 µM | 1.06 µM | 32.5 µM | 0.658 | 6.17 µM | 2.26 µM | 16.8 µM | 1.38 | 12.8 µM
Cn1cc(C2=C(c3cn(C)c4ccccc34)C(=O)NC2=O)c2ccccc21 | 1.55 | > 25 µM | 1.12 µM | > 25 | 1.52 | > 25 µM | 1.12 | > 25 µM | > 23.5 | > 25 µM | 0.88 | > 25 µM | 8.75 µM | > 25 µM | 4.17 | > 25 µM | 0.825 µM | 14.5 µM | 2.25 | > 25 µM
Cn1c(/C=C/[N+](=O)[O-])cc2ccccc21 | 6.45 | 92.5 µM | 3.77 µM | 20.9 | 2.15 | 4.08 µM | 6.75 | 35.5 µM | 5.49 | 47.9 µM | 1.67 | 3.22 µM | 4.04 µM | 14.9 µM | 2.11 | 6.86 µM | 1.66 µM | 3.08 µM | 3.42 | 13.2 µM
CCCCCCCCC(=O)OCC(CS[As](C)C)OC(=O)CCCCCCCC (centres undefined) | 0.89 | 3.07 µM | 21.7 µM | 58.3 | 1.16 | > 40.1 µM | 2.6 | 21.8 µM | 2.7 | 18.4 µM | 0.349 | 14.9 µM | 0.364 µM | 3.14 µM | 1.4 | 15.3 µM | 0.548 µM | 10.7 µM | 0.602 | 3.62 µM
N#C[Se]CCCNS(=O)(=O)C1CC2C=CC1C2 (centres undefined) | 0.57 | 5.12 µM | 0.316 µM | 1.27 | 0.997 | 2.33 µM | 0.704 | 3.83 µM | 1.23 | 3.55 µM | 1.79 | 5.56 µM | 0.403 µM | 2.33 µM | 0.648 | 3.09 µM | 0.364 µM | 1.34 µM | 1.48 | 2.85 µM
O=C(c1ccco1)c1c(C(F)(F)F)n([O-])c2ccc(Cl)cc2[n+]1=O | 0.819 | 10.3 µM | 0.547 µM | – | 0.043 | 0.115 µM | 0.294 | 1.07 µM | 0.376 | 1.41 µM | 0.22 | 1.18 µM | 0.363 µM | 1.02 µM | 1.31 | 3.08 µM | 1.38 µM | 3.83 µM | 0.137 | 0.482 µM
CC(C)(C)c1c2c(c(C(C)(C)C)c3c1OCN(Cc1ccccc1)C3)OCN(Cc1ccccc1)C2 | – | 41 µM | – | 28.7 | – | 27.7 µM | – | 38 µM | – | 29.3 µM | – | > 100 µM | – | 32.5 µM | – | 29.1 µM | – | 36.2 µM | – | 51.1 µM
Cc1ccc(Cl)c(Nc2ccccc2C(=O)O)c1Cl | 26.3 | 80.9 µM | 25.9 µM | 69.4 | 23 | 64.3 µM | 29.9 | > 100 µM | 32.1 | > 100 µM | 34.4 | > 100 µM | 29.2 µM | 86 µM | 27.4 | > 100 µM | 19.8 µM | 46.8 µM | 32.7 | > 100 µM
O=C(Nc1ccc(/C=C/c2ccc(NC(=O)c3cc(S(=O)(=O)O)c4cccnc4c3O)cc2S(=O)(=O)O)c(S(=O)(=O)O)c1)c1cc(S(=O)(=O)O)c2cccnc2c1O | > 56.2 | > 100 µM | 22.9 µM | > 76.9 | 4.86 | > 54.5 µM | 32.2 | > 78.3 µM | 16.3 | > 68.4 µM | 17.8 | > 83.8 µM | 48.4 µM | > 71.4 µM | 25.8 | > 56.3 µM | 20.9 µM | > 53.6 µM | 3.37 | > 15.8 µM
COc1cc2c(cc1OC)C1Cc3cc(OC)c(OC)cc3C(C2)N1C | – | > 75 µM | 30.3 µM and 78.9 µM | > 100 | – | > 100 µM | – | > 75 µM | – | > 75 µM | – | > 100 µM | 36.3 µM and > 100 µM | > 100 µM | – | > 100 µM | – | > 75 µM | – | > 100 µM
CCCCCCCCCCCCOC1C(CNC(=O)C2OC3OC(C)(C)OC3C2NC(=O)Nc2ccc(CC(=O)NC(Cc3ccccc3)C(=O)O)cc2)OC2OC(C)(C)OC21 (centres undefined) | > 25 | > 25 µM | > 25 µM | > 25 | > 25 | > 25 µM | > 25 | > 25 µM | > 25 | > 25 µM | > 25 | > 25 µM | > 25 µM | > 25 µM | > 25 | > 25 µM | 13.3 µM | > 25 µM | > 25 | > 25 µM
COc1cc(C(=O)Nc2cc(OC)c3ccn(C)c3c2)cc2c1C[C@]1(C)CC[C@@H](O)C(C)(C)[C@H]1O2 | 2.34 | 14.7 µM | 0.586 µM | > 100 | 0.0878 | 5.22 µM | 0.195 | > 100 µM | 1.86 | 16.5 µM | 1.04 | 10 µM | 3.74 µM | 43.8 µM | 1.63 | 30.7 µM | 0.0317 µM | 0.485 µM | 0.944 | > 100 µM
O=C(Nc1ccccc1)c1cc(S(=O)(=O)Nc2nc3ccccc3o2)c(SCc2ccccc2)cc1Cl | 26.1 | 66.3 µM | 20.8 µM | 77 | 17.3 | 38.2 µM | 21.7 | 46.7 µM | 18.3 | 42.4 µM | 17.1 | 37.7 µM | 13.9 µM | 28.2 µM | 19.6 | 38.6 µM | 19.7 µM | 47.7 µM | 18.2 | 37 µM
COc1ccc(/C=C/C(=O)c2ccc(OC)c(OC)c2)cc1O | 3.88 | 49.1 µM | 3.44 µM | 11.8 | 14.2 | 65.8 µM | 12.8 | 39.6 µM | 4.76 | 31.8 µM | 3.09 | 12.8 µM | 11.4 µM | 30.4 µM | 13.8 | 26.9 µM | 2.63 µM | 7.62 µM | 6.15 | > 100 µM
COc1ccc(C2C(C)C(=O)C(C)C(c3ccc(OC)cc3)N2N=O)cc1 (centres undefined) | – | > 1000 µM | > 750 µM | > 1000 | – | 467 µM | – | > 1000 µM | – | 132 µM | > 750 | > 1000 µM | 147 µM | 488 µM and 245 µM | – | > 1000 µM | 20.7 µM and 67.6 µM | 64.8 µM and 216 µM and 122 µM | – | > 663 µM
Cc1c(O)c2c(c(O)c1Br)C(=O)C=CC2=O | 2.4 | 1.66 µM and 7.1 µM | – | 2.74 | 1.46 | 0.428 µM and 3.02 µM | 1.9 | 3.19 µM and 5.15 µM | 1.58 | 3.01 µM and 3.48 µM | 0.449 | 0.364 µM and 2.27 µM | 0.343 µM | 2.55 µM and 1.15 µM | 0.924 | 2.52 µM and 2.22 µM | 0.229 µM | 2.72 µM and 0.582 µM | 0.489 | 2.2 µM and 1.83 µM
CC1OC(OC2C(OC3CCC4(C)C(CCC5(C)C4CC=C4C6CC(C)(C)CCC6(C(=O)O)CCC45C)C3(C)CO)OCC(O)C2O)C(O)C(O)C1O (centres undefined) | – | 43.4 µM | – | 43 | – | > 100 µM | – | 29.1 µM | – | 35.4 µM | – | 55.4 µM | – | 40.8 µM | – | 41.2 µM | – | 11.6 µM | – | 37.5 µM
